Here are results for 71 molecules from PMC6627609, “Targeting Quorum Sensing: High-Throughput Screening to Identify Novel LsrK Inhibitors” (International Journal of Molecular Sciences, 2019).

A word on the IC50: it is the concentration that inhibits the measured activity by half. A higher IC50 goes with weaker potency. The inhibition is the change of the read-out against control, counted positive when it falls.

Where a name gives a salt, the structure may show the parent alone.

One experiment deals with LsrK (Salmonella typhimurium, UniProt Q8ZKQ6). The experiment can be described thus: biochemical. The experiment is classed as biochemical, S. typhimurium.
LsrK, sequence (Q8ZKQ6 whole entry): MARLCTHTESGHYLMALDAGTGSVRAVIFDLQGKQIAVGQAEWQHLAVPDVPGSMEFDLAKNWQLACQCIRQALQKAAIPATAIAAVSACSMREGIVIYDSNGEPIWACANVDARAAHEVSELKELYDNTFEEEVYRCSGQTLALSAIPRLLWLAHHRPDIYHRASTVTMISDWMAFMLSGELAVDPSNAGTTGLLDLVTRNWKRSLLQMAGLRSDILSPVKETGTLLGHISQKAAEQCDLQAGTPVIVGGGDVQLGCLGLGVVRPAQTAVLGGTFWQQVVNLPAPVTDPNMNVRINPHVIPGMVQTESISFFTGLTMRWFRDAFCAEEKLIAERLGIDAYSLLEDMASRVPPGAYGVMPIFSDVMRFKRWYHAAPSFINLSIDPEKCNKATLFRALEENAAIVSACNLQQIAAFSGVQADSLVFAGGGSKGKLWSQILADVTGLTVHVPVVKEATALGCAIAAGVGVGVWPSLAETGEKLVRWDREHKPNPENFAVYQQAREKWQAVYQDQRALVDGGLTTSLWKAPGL
Conditions: not given
Regarding `N#Cc1c(Cl)c(Cl)c(Cl)c(C#N)c1Cl` [TETRACHLOROISOPHTHALONITRILE], the half-inhibitory concentration (IC50) is 9 µM and the inhibition at 50 µM is 138%.
In the case of `O=C1C=C2C(=CCOC2O)O1` (centres unmarked) [PATULIN], the inhibition at 50 µM was found to be 99%.
On the same count and under the same terms, as for `CCCCC(=O)N(Cc1ccc(-c2ccccc2-c2nnn[nH]2)cc1)[C@H](C(=O)O)C(C)C`, the figure is 1%; as for `Cc1ccc(C(=O)c2ccc(CC(=O)O)n2C)cc1` [TOLMETIN SODIUM], 1%; as for `COC(=O)Nc1nc2ccc(C(=O)c3ccccc3)cc2[nH]1` [MEBENDAZOLE], 1%.
Turning to `COc1ccc(CN(CCN(C)C)c2ncccn2)cc1` [THONZYLAMINE HYDROCHLORIDE, reference compound], half-maximal inhibition (IC50) was put at 24 µM and the inhibition at 50 µM was 112%.
For the molecule `N[C@H]1C(O)O[C@H](CO)[C@@H](O)[C@@H]1O` (some centres unmarked) [GLUCOSAMINE HYDROCHLORIDE], the inhibition at 50 µM was 1%.
Take `O=C(O)c1cc(-c2ccccc2)nc2ccccc12` [CINCHOPHEN]: the inhibition at 50 µM stood at 6%.
As for `Nc1ccc(C(=O)NCC(=O)O)cc1` [AMINOHIPPURIC ACID], the inhibition at 50 µM is 1%.
Same read-out and setting: as for `O=C(O)c1cc(O)c2c(c1)[C@H]([C@H]1c3cc(C(=O)O)cc(O)c3C(=O)c3c(O[C@@H]4O[C@H](CO)[C@@H](O)[C@H](O)[C@H]4O)cccc31)c1cccc(O[C@@H]3O[C@H](CO)[C@@H](O)[C@H](O)[C@H]3O)c1C2=O` [SENNOSIDE A], the figure is 0%; as for `C[C@H](CCC(=O)O)[C@H]1CC[C@H]2[C@@H]3[C@H](O)C[C@@H]4C[C@H](O)CC[C@]4(C)[C@H]3CC[C@]12C` [CHENODIOL], 2%.
Same read-out and setting: as for `CC1=CCc2c(cc3oc(C)cc(=O)c3c2O)OC1` [PTAEROXYLIN], the figure is 1%; as for `CC(=O)N(O)CCCCCNC(=O)CCC(=O)N(O)CCCCCNC(=O)CCC(=O)N(O)CCCCCN` [DEFEROXAMINE MESYLATE], 1%; as for `COc1ccc2c(=O)c(CC(=O)O)coc2c1` [ANHYD[…]], 3%.
Still for that read-out and setting: as for `COc1ccc2[nH]cc(CCNC(C)=O)c2c1` [MELATONIN], the figure is 1%; as for `NC(=O)c1ncn([C@@H]2O[C@H](CO)[C@@H](O)[C@H]2O)c1N` [ACADESINE], 0%.
In the case of `O=c1cc(-c2ccccc2)oc2cc(O)c(O)c(O)c12` [BAICALEIN], the inhibition at 50 µM came to 2%.
`CN(C)c1ccc2nc3ccc(=[N+](C)C)cc-3sc2c1` [METHYLENE BLUE]: the inhibition at 50 µM was found to be 3%.
In the case of `COC(=O)C1=C(C)NC(C)=C(C(=O)OC)C1c1ccccc1[N+](=O)[O-]` [NIFEDIPINE], the inhibition at 50 µM is 98%.
`C=C(C)[C@H]1Cc2c(ccc3c(=O)c4c(oc23)COc2cc(OC)c(OC)cc2-4)O1` [DEHYDROROTENONE]: the inhibition at 50 µM worked out at 1%.
Same read-out and setting: as for `Cc1cc2c(C(C)C)c(O)c(O)c(C=O)c2c(O)c1-c1c(C)cc2c(C(C)C)c(O)c(O)c(C=O)c2c1O` [GOSSYPOL], the figure is 83%; as for `Nc1ncnc2[nH]cnc12` [ADENINE], 1%.
Regarding `C=CC1=C(C)c2cc3[nH]c(cc4nc(cc5[nH]c(cc1n2)c(C)c5CCC(=O)O)C(CCC(=O)O)=C4C)c(C)c3C=C` [PROTOPORPHYRIN IX], the IC50 was determined as 9 µM and the inhibition at 50 µM is 100%.
In the case of `COc1ccc2c(c1)OCc1c-2oc2cc(OC)ccc12` [DEHYDROVARIABILIN], the inhibition at 50 µM was 1%.
With `O=C1OC2(c3ccc(O)cc3Oc3cc(O)ccc32)c2ccccc21` [FLUORESCEIN], the inhibition at 50 µM was determined as 1%.
On the same count and under the same terms, as for `OC[C@H]1O[C@@H](O[C@@H]2[C@@H](CO)OC(O)(CO)[C@H]2O)[C@H](O)[C@@H](O)[C@H]1O` (mixture of isomers) [LACTULOSE], the figure is 2%.
On to `Cc1cc(=O)oc2c(O)c(O)ccc12` [4-METHYLDAPHNETIN], for which the inhibition at 50 µM was 1%.
Still for that read-out and setting: as for `COc1cc(CNC(=O)CCCC/C=C/C(C)C)ccc1O` [CAPSAICIN], the figure is 2%.
`C=C(C)[C@@H]1CC[C@]2(CO)CC[C@]3(C)[C@H](CC[C@@H]4[C@@]5(C)CC[C@H](O)C(C)(C)[C@@H]5CC[C@]43C)[C@@H]12` [BETULIN]: the inhibition at 50 µM was 4%.
On the same count and under the same terms, as for `CCCc1nc(C)c2c(=O)[nH]c(-c3cc(S(=O)(=O)N4CCN(CC)CC4)ccc3OCC)nn12` [VARDENAFIL HYDROCHLORIDE], the figure is 1%; as for `CC(=O)Oc1ccccc1C(=O)O` [ASPIRIN], 0%; as for `CN1[C@@H]2CC[C@H]1C[C@@H](OC(=O)C(CO)c1ccccc1)C2` (some centres unmarked) [ATROPINE SULFATE], 3%.
The same measure, in the same setting: as for `CCCC(=O)Nc1ccc(OCC(O)CNC(C)C)c(C(C)=O)c1` (centres unmarked) [ACEBUTOLOL HYDROCHLORIDE], the figure is 0%.
Still for that read-out and setting: as for `CC1(C)C[C@@H]2C(=O)CC[C@H]3O[C@]3(C)CC[C@H]21` [KOBUSONE], the figure is 1%.
On to `CCCCOc1ccc(C(=O)CCN2CCCCC2)cc1` [DYCLONINE HYDROCHLORIDE], for which the inhibition at 50 µM was found to be 131%.
Still for that read-out and setting: as for `O=C(O)/C=C/C=C/c1ccccc1` [JUAREZIC ACID], the figure is 1%.
Turning to `C=C[C@H]1C[N@@]2CC[C@H]1C[C@@H]2[C@@H](O)c1ccnc2ccccc12` [CINCHONINE], the inhibition at 50 µM stood at 1%.
The same measure, in the same setting: as for `Nc1nc(=O)c2nc(CNc3ccc(C(=O)N[C@@H](CCC(=O)O)C(=O)O)cc3)cnc2[nH]1` [FOLIC ACID], the figure is 90%; as for `CCC(C)C(=O)O[C@@H]1C[C@@]2(C)[C@H](c3ccoc3)OC(=O)CC23OC2(C)O[C@]14[C@]1(C)[C@@H](CC(=O)OC)C5(C)CC1(O)[C@](O)(C5OC(=O)C1(C)OC1C)[C@@H](OC(C)=O)[C@]34O2` (some centres unmarked) [UTILIN], 1%; as for `CC1(C)O[C@@H]2C[C@H]3[C@@H]4CCC5=CC(=O)C=C[C@]5(C)[C@H]4[C@@H](O)C[C@]3(C)[C@]2(C(=O)CO)O1` [DESONIDE], 0%.
The same measure, in the same setting: as for `CC1=CC(=O)C(C(C)C)=CC1=O` [THYMOQUINONE], the figure is 2%; as for `C=C[C@H]1CN2CC[C@H]1C[C@H]2[C@H](OC(=O)OCC)c1ccnc2ccc(OC)cc12` [QUININE ETHYL CARBONATE], 3%; as for `COC(=O)[C@]1(C)CC[C@]2(C)CC[C@]3(C)C4=CC=C5C(=CC(=O)C(O)=C5C)[C@]4(C)CC[C@@]3(C)[C@@H]2C1` [PRISTIMERIN], 7%.
Take `NCCCNCCSP(=O)(O)O` [AMIFOSTINE]: the inhibition at 50 µM was found to be 3%.
Still for that read-out and setting: as for `CC1=NCCc2c1[nH]c1cc(O)ccc21` [HARMALOL HYDROCHLORIDE], the figure is 4%.
For `O=C(O)P(=O)(O)O` [FOSCARNET SODIUM], the inhibition at 50 µM is 1%.
The same measure, in the same setting: as for `O=C(O)CCc1nc(-c2ccccc2)c(-c2ccccc2)o1` [OXAPROZIN], the figure is 13%.
On the same count and under the same terms, as for `CCC(=O)O[C@]1(C(=O)CCl)[C@@H](C)C[C@H]2[C@@H]3CCC4=CC(=O)C=C[C@]4(C)[C@@]3(F)[C@@H](O)C[C@@]21C` [CLOBETASOL PROPIONATE], the figure is 2%; as for `O=C(Nc1ccc([N+](=O)[O-])cc1Cl)c1cc(Cl)ccc1O` [NICLOSAMIDE], 0%; as for `O=C(O)C1CCCNC1` (centres unmarked) [NIPECOTIC ACID], 0%.
On the same count and under the same terms, as for `C[C@H]1[C@H](NC(=O)/C(=N\OC(C)(C)C(=O)O)c2csc(N)n2)C(=O)N1S(=O)(=O)O` [AZTREONAM], the figure is 1%; as for `OCC(S)CS` (centres unmarked) [DIMERCAPROL], 125%.
`CC(C)COCC(CN(Cc1ccccc1)c1ccccc1)N1CCCC1` (centres unmarked) [BEPRIDIL HYDROCHLORIDE]: the inhibition at 50 µM is 18%.
In the case of `Cc1ccc(N(CC2=NCCN2)c2cccc(O)c2)cc1` [PHENTOLAMINE HYDROCHLORIDE], the inhibition at 50 µM is 0%.
The same measure, in the same setting: as for `N=C1C=CC(=C(c2ccc(N)cc2)c2ccc(N)cc2)C=C1` [PARA[…]], the figure is 138%; as for `CC(C)(C(=O)O)c1ccc(C(O)CCCN2CCC(C(O)(c3ccccc3)c3ccccc3)CC2)cc1` (centres unmarked) [FEXOFENADINE HYDROCHLORIDE], 0%; as for `C#CCCCCCCCCCCCC(O)CC(O)COC(C)=O` (centres unmarked) [AVOCADYNE ACETATE], 1%.
Still for that read-out and setting: as for `O=C1O[C@H](CO)[C@@H](O)[C@H](O)[C@H]1O` [GLUCONOLACTONE], the figure is 0%.

Staying with this experiment, now noted: 50 µM.
Regarding `CC1(C)C2CC(=O)[C@]3(C)C(CC[C@@]4(C)[C@H](c5ccoc5)OC(=O)C5OC543)[C@@]2(C)[C@@H](O)C[C@H]1O` (some centres unmarked), the “Inhibition (%)” value was found to be 2.
As to `COc1ccc(/C=C/C(=O)c2ccc(O)cc2O)cc1` [2'.4'-DIHYDROXY-4-METHOXYCHALCONE], the “Inhibition (%)” value was found to be 2.
Take `CCc1cc(Cl)c(OC)c(C(=O)NC[C@@H]2CCCN2CC)c1O.Cl` [ETICLOPRIDE HYDROCHLORIDE]: the “Inhibition (%)” value is listed as 2.
Still for that read-out and setting: as for `O=C([O-])c1ccccc1-c1c2cc(I)c(=O)c(I)c-2oc2c(I)c([O-])c(I)cc12.[Na+].[Na+]` [ERYTHROSINE SODIUM], the figure is 69; as for `C=CCCCCCCCCC(=O)[O-].C=CCCCCCCCCC(=O)[O-].[Zn+2]` [ZINC UNDECYLENATE], 21; as for BACITRACIN, 5.
The same measure, in the same setting: as for `COc1cc(O)c(C)c(O)c1` [2.6-DIHYDROXY-4-METHOXYTOLUENE], the figure is 1; as for `CC(=O)O[C@@H]1C[C@]2(C)[C@@H](C(C)=O)CC[C@H]2[C@@H]2CCC3=CC(=O)CC[C@]3(C)[C@H]21` [11a-ACETOXYPROGESTERONE], 23; as for `CC(=O)Oc1cc(C(C)C)c(OCCN(C)C)cc1C.Cl` [MOXISYLYTE HYDROCHORIDE], 2.
Turning to GARLICIN, the “Inhibition (%)” value stood at 10.
Same read-out and setting: as for `C=C[C@@](C)(O)CC[C@H]1C(=C)C[C@H](O)[C@H]2C(C)(C)CCC[C@]12C` [LARIXOL], the figure is 1.
The same measure, in the same setting: as for ASARININ (-), the figure is 1; as for `C[N+]1(C)CCOC(O)(c2ccc(-c3ccc(C4(O)C[N+](C)(C)CCO4)cc3)cc2)C1.[Br-].[Br-]` (centres unmarked) [HEMICHOLINIUM BROMIDE], 1.
